Results reported in the supplement of paper PMC10307832.

Experiments:
Experiment in all cases: relative viability (nuclei count vs DMSO), 5 days (fraction); higher = more cells survive
[1] = test system: NCI-H2009
In short: (§1)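 One day after seeding in 1536-well plates, lung cancer cell lines were dosed by pin tool. Dosing was either single-drug or a fixed anchor-drug dose plus five library-drug doses (not always all listed) in √10 steps. After 5 days, nuclei were stained in one fix-and-stain step and counted on 4× images, and relative viability is the nuclei count of treated wells over that of vehicle wells, given as the median of duplicate plates.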

[2] = test system: NCI-H2170
In short: as §1

[3] = test system: NCI-H1755
In short: as §1

[4] = test system: EMC-BAC-2
In short: as §1

[5] = test system: NCI-H1651
In short: as §1

[6] = test system: H3255
In short: as §1

[7] = test system: HOP-62
In short: as §1

[8] = test system: NCI-H322M
In short: as §1

[9] = test system: ABC-1
In short: as §1

[10] = test system: NCI-H596
In short: as §1

[11] = test system: NCI-H2126
In short: as §1

[12] = test system: 201T
In short: as §1

[13] = test system: NCI-H3122
In short: as §1

[14] = test system: LK-2
In short: as §1

[15] = test system: NCI-H1734
In short: as §1

[16] = test system: CAL-12T
In short: as §1

[17] = test system: SK-MES-1
In short: as §1

[18] = test system: NCI-H2087
In short: as §1

[19] = test system: NCI-H441
In short: as §1

[20] = test system: PC-14
In short: as §1

[21] = test system: ChaGo-K-1
In short: as §1

[22] = test system: NCI-H647
In short: as §1

[23] = test system: LXF-289
In short: as §1

`Cc1cnc(-c2cnc(NCCNc3ccc(C#N)cn3)nc2-c2ccc(Cl)cc2Cl)[nH]1` + CS(=O)(=O)N1CCN(Cc2cc3nc(-c4cccc5[nH]ncc45)nc(N4CCOCC4)c3s2)CC1 [Pictilisib] (partner 1 µM) showed a relative viability ([1]; first compound 0.08 µM) of 0.877, a relative viability ([1]; first compound 0.253 µM) of 0.81 and a relative viability ([1]; first compound 0.8 µM) of 0.814. For the same molecule, the relative viability ([1]; first compound 2.53 µM) was 0.732, the relative viability ([2]; first compound 0.08 µM) was 0.29 and the relative viability ([2]; first compound 0.253 µM) was 0.307. For the same molecule, the relative viability ([2]; first compound 0.8 µM) was 0.261, the relative viability ([2]; first compound 2.53 µM) was 0.318 and the relative viability ([3]; first compound 0.08 µM) was 0.507. It also gave a relative viability ([3]; first compound 0.253 µM) of 0.411, a relative viability ([3]; first compound 0.8 µM) of 0.386 and a relative viability ([3]; first compound 2.53 µM) of 0.559. For the same molecule, the relative viability ([4]; first compound 0.08 µM) was 0.579, the relative viability ([4]; first compound 0.253 µM) was 0.525 and the relative viability ([4]; first compound 0.8 µM) was 0.515. The relative viability ([4]; first compound 2.53 µM) was 0.567, the relative viability ([5]; first compound 0.08 µM) was 0.67 and the relative viability ([5]; first compound 0.253 µM) was 0.485. It also gave a relative viability ([5]; first compound 0.8 µM) of 0.524, a relative viability ([5]; first compound 2.53 µM) of 0.686 and a relative viability ([6]; first compound 0.08 µM) of 0.554. The relative viability ([6]; first compound 0.253 µM) was 0.463, the relative viability ([6]; first compound 0.8 µM) was 0.469 and the relative viability ([6]; first compound 2.53 µM) was 0.476. The relative viability ([7]; first compound 0.08 µM) was 0.777, the relative viability ([7]; first compound 0.253 µM) was 0.688 and the relative viability ([7]; first compound 0.8 µM) was 0.725. For the same molecule, the relative viability ([7]; first compound 2.53 µM) was 0.647, the relative viability ([8]; first compound 0.08 µM) was 0.59 and the relative viability ([8]; first compound 0.253 µM) was 0.523. It also gave a relative viability ([8]; first compound 0.8 µM) of 0.413, a relative viability ([8]; first compound 2.53 µM) of 0.538 and a relative viability ([9]; first compound 0.08 µM) of 1. For the same molecule, the relative viability ([9]; first compound 0.253 µM) was 0.584, the relative viability ([9]; first compound 0.8 µM) was 0.75 and the relative viability ([9]; first compound 2.53 µM) was 0.744. For the same molecule, the relative viability ([10]; first compound 0.08 µM) was 0.424, the relative viability ([10]; first compound 0.253 µM) was 0.397 and the relative viability ([10]; first compound 0.8 µM) was 0.391. For the same molecule, the relative viability ([10]; first compound 2.53 µM) was 0.435, the relative viability ([11]; first compound 0.08 µM) was 0.512 and the relative viability ([11]; first compound 0.253 µM) was 0.468. The relative viability ([11]; first compound 0.8 µM) was 0.494, the relative viability ([11]; first compound 2.53 µM) was 0.559 and the relative viability ([12]; first compound 0.08 µM) was 0.713. The relative viability ([12]; first compound 0.253 µM) was 0.629, the relative viability ([12]; first compound 0.8 µM) was 0.724 and the relative viability ([12]; first compound 2.53 µM) was 0.723. The relative viability ([13]; first compound 0.08 µM) was 0.65, the relative viability ([13]; first compound 0.253 µM) was 0.64 and the relative viability ([13]; first compound 0.8 µM) was 0.646. For the same molecule, the relative viability ([13]; first compound 2.53 µM) was 0.763, the relative viability ([14]; first compound 0.08 µM) was 0.646 and the relative viability ([14]; first compound 0.253 µM) was 0.577. For the same molecule, the relative viability ([14]; first compound 0.8 µM) was 0.618, the relative viability ([14]; first compound 2.53 µM) was 1.11 and the relative viability ([15]; first compound 0.08 µM) was 0.548. It also gave a relative viability ([15]; first compound 0.253 µM) of 0.43, a relative viability ([15]; first compound 0.8 µM) of 0.432 and a relative viability ([15]; first compound 2.53 µM) of 0.522. For the same molecule, the relative viability ([16]; first compound 0.253 µM) was 0.52, the relative viability ([16]; first compound 2.53 µM) was 0.53 and the relative viability ([17]; first compound 0.08 µM) was 0.406. For the same molecule, the relative viability ([17]; first compound 0.253 µM) was 0.378, the relative viability ([17]; first compound 0.8 µM) was 0.38 and the relative viability ([17]; first compound 2.53 µM) was 0.403. The relative viability ([18]; first compound 0.08 µM) was 0.853, the relative viability ([18]; first compound 0.253 µM) was 0.754 and the relative viability ([18]; first compound 0.8 µM) was 0.975. For the same molecule, the relative viability ([18]; first compound 2.53 µM) was 1.06, the relative viability ([19]; first compound 0.08 µM) was 0.486 and the relative viability ([19]; first compound 0.253 µM) was 0.376. For the same molecule, the relative viability ([19]; first compound 0.8 µM) was 0.428, the relative viability ([19]; first compound 2.53 µM) was 0.553 and the relative viability ([20]; first compound 0.08 µM) was 0.662. For the same molecule, the relative viability ([20]; first compound 0.253 µM) was 0.775, the relative viability ([20]; first compound 0.8 µM) was 0.55 and the relative viability ([20]; first compound 2.53 µM) was 0.645. It also gave a relative viability ([21]; first compound 0.08 µM) of 0.612, a relative viability ([21]; first compound 0.253 µM) of 0.828 and a relative viability ([21]; first compound 0.8 µM) of 0.375. It also gave a relative viability ([21]; first compound 2.53 µM) of 0.623, a relative viability ([22]; first compound 0.08 µM) of 0.451 and a relative viability ([22]; first compound 0.253 µM) of 0.45. It also gave a relative viability ([22]; first compound 0.8 µM) of 0.366, a relative viability ([22]; first compound 2.53 µM) of 0.458 and a relative viability ([23]; first compound 0.08 µM) of 0.841. It also gave a relative viability ([23]; first compound 0.253 µM) of 0.745, a relative viability ([23]; first compound 0.8 µM) of 0.845 and a relative viability ([23]; first compound 2.53 µM) of 0.877.
